The text below walks through data of patent publication US20110053910A1, “2 -HETEROCYCLYLOXYBENZOYL AMINO HETEROCYCLYL COMPOUNDS AS MODULATORS OF GLUCOKINASE FOR THE TREATMENT OF TYPE 2 DIABETES” (priority 2005, published 2011).

SMILES strings stand for the structures.

Experiment [1] concerns the target T1, recombinant human pancreatic GLK (Homo sapiens, UniProt P35557).
T1 sequence (P35557 1-465): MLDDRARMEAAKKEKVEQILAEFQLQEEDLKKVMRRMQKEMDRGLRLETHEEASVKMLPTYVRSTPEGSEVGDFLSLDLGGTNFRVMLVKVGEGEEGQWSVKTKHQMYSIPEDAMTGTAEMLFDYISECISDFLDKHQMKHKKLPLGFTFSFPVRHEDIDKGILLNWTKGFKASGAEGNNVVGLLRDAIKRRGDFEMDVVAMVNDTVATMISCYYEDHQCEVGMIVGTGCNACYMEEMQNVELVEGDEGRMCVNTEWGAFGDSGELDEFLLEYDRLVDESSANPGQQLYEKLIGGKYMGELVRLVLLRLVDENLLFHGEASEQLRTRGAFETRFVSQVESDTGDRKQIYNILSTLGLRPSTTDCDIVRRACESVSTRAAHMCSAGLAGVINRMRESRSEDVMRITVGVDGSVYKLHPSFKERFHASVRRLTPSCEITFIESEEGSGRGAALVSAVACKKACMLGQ
The experiment can be described thus: biochemical.

Experiment [2] has as its system Zucker obese fa/fa rats. The experiment is described as follows: Oral Glucose Tolerance Test (OGTT). The class given is in vivo, rat. The following applies: 10 mg/kg, given orally 120 minutes before glucose 2 g/kg; Zucker obese fa/fa rats on high fat diet; vehicle-control AUC = zero percent. As to the method:
Oral glucose tolerance tests were done on conscious Zucker obese fa/fa rats (age 12-13 weeks or older) fed a high fat diet (45% kcal fat) for at least two weeks prior to experimentation. The animals were fasted for 2 hours before use for experiments. A test compound or a vehicle was given orally 120 minutes before oral administration of a glucose solution at a dose of 2 g/kg body weight. Blood glucose levels were measured using a Accucheck glucometer from tail bled samples taken at different time points before and after administration of glucose (time course of […]). A time curve of the blood glucose levels was generated and the area-under-the-curve (AUC) for 120 minutes was calculated (the time of glucose administration being time zero). Percent reduction in glucose excursion was determined using the AUC in the vehicle-control group as zero percent reduction.

The term EC50 denotes the concentration giving half of the maximal effect. For `C[C@@H](CO)Oc1cc(Oc2nc3ccccc3s2)cc(C(=O)Nc2ccn(C)n2)c1` [Example 1, 3-(1,3-Benzothiazol-2-yloxy)-5-{[(1S)-2-hydroxy-1-methylethyl]oxy}-N-(1-methyl-1H-pyrazol-3-yl)benzamide], the EC50 in experiment [1] was 88 nM. The “activity in OGTT (percent reduction in glucose excursion, AUC)” value in experiment [2] is 50%.
